Data taken from patent US20140187595A1 (INSERM (Institut National de la Sante et de la Recherche …, priority 2010, published 2014).

Key:
[1] = tested on: splicing defects associated with myotonic dystrophy; conditions: Warf et al. 2009; cited from earlier work
[2] = tested on: INSR splicing (±exon 11) in DM1 MPCs; experiment: INSR splicing (±exon 11, INSR-A/INSR-B ratio) by quantitative PCR in DM1 MPCs; format: cell-based, human
[3] = tested on: cTNT splicing (±exon 5), pRG6 minigene; experiment: cTNT splicing (±exon 5) by RT-PCR in MPCs transfected with pRG6 minigene; format: cell-based, human; conditions: 25 mM, DM1 MPCs
From the text: FIG. 1E cTNT splicing (±exon 5) in WT and DM1 MPCs cotransfected with the indicated expression vectors and the pSG (d) or pRG6 (e) minigenes respectively (means ±s.d., n=3).
TNNT2 (cTNT) was chosen because, opposite to INSR, abnormal splicing in DM1 leads to the inclusion of an exon (exon 5)^4. As TNNT2 is not expressed in MPCs, cells were transfected with the RG6 minigene^13 based upon the chicken orthologue.

WT MPCs = experiment: INSR and cTNT splicing in WT cells; format: cell-based, human
DM1 myoblasts = experiment: Splicing in immortalized myoblasts from DM1 patients; format: cell-based, human
From the text: FIGS. 4A and 4B. Effects of AMPK activators on INSR splicing defect in immortalized myoblasts or freshly isolated peripheral blood lymphocytes (PBLs) from DM1 patients.

[4] = Toxicity in mouse at end of metformin treatment; format: in vivo, C57BL/6NCr1 mouse; conditions: 200 and 600 mg/Kg/day by gavage
From the text: Enhancement of Ank2 exon 21 and Capzb exon 8 inclusion, INSR exon 11 and Nfix exon […] exclusion or Alp exons 5a and 5b alternative splicing associated to a rescuing effect of DM1 missplicings in mouse skeletal muscle were observed.

[5] = tested on: pre-mRNA splicing (Ank2, Capzb, INSR, Nfix, Alp); conditions: higher dose (600 mg/Kg/day), mouse heart
DM1 cells = experiment: Toxicity on repeated daily treatment of DM1 cells; conditions: 10 mM repeated daily for up to 10 days

Structure (SMILES) | splicing defects associated with myotonic dystrophy [1] | corrective effect on INSR splicing after repeated treatment ([2]; 10 mM daily for up to 10 days) | INSR splicing (±exon 11) rescue ([2]; 24 h-treatment, increasing concentrations) | exogenous cTNT splicing (±exon 5) [3] | exogenous cTNT splicing (±exon 5) ([3]; listed as Metformin) | "MBNL1-related" splicing of the two genes (INSR, cTNT) (WT MPCs) | INSR transcript exon 11 (DM1 myoblasts) | SERCA1 transcript exon 22 (DM1 myoblasts) | ZASP transcript exon 10 (DM1 myoblasts) | endogenous human cTNT transcript exon 5 (DM1 myoblasts) | toxicity at the end of the treatment period [4] | INSR exon 11 exclusion in the heart [5] | toxicity (DM1 cells)
N=C(N)c1ccc(OCCCCCOc2ccc(C(=N)N)cc2)cc1 [Pentamidine, pentamidine] | reverses the splicing defects |  |  |  |  |  |  |  |  |  |  |  | 
CN(C)C(=N)N=C(N)N [metformin] |  | maintained corrective effect | partially rescues | decreased inclusion of exon 5 | restores | efficient in facilitating | exon 11 inclusion | exon 22 inclusion | exon 10 skipping | exon 5 skipping | No sign of toxicity | enhancement of INSR exon 11 exclusion was also observed | no observed toxicity
